According to patent US20210283089A1, “Use of fumaric acid esters and pharmaceutically acceptable salts thereof in preparing pharmaceuticals for treating ferroptosis-related diseases” (XIANGYA HOSPITAL CENTRAL SOUTH UNIVERSITY, priority 2018, published 2021):
Structures can show the parent of a compound that is named as a salt.

What was measured:
[1] = tested on: HepG2 and LO2 cells; experiment: Determination test of cell membrane lipid peroxidation level (MDA detection kit); type: cell-based, Human; settings: 6 h; for cell membrane lipid peroxidation level (stimulus alone): 80 mM ethanol or 10 μM DOX alone
Protocol: Human hepatocytes HepG2 and LO2 cells are obtained from the cell bank of Xiangya Hospital. The medium is DMEM medium (HyClone, SH30022.01) and RPMI medium (HyClone, SH30809.01) containing 10% fetal bovine serum (Gibco, 10091148) and 100 U/mL ampicillin+streptomycin double-antibody (Gibco, 10378016). The cell incubator conditions are 37° C., constant temperature and humidity, and constant carbon dioxide concentration of 5%. DMSO, 1 μM of Erastin, 80 mM of ethanol, 10 μM of DOX, 10 μM DOX+10 μM dimethyl fumarate, 10 μM DOX+10 μM monomethyl fumarate, 10 μM DOX+1 μM Ferrostatin-1, 80 mM ethanol+10 μM dimethyl fumarate, 80 mM ethanol+10 μM monomethyl fumarate, and 80 mM ethanol+1 μM Ferrostatin-1 are respectively added to monolayer adherent hepatocytes HepG2 and LO2 cells. After being incubated for 6 h, the cells are gently rinsed with PBS buffer pre-cooled at 4° C. for 3 times, and every 1 million cells are homogenized with 0.1 mL of IP lysate (Beyotime, […]), and supernatant is collected after centrifugation at 4° C. The cell membrane lipid peroxidation level is measured by MDA detection kit (Beyotime, […]), specific operations are performed according to the instructions, and the test is repeated for three times.

[2] = tested on: GPX4 protein level of HepG2 and LO2 cells; experiment: Western Blot test 2: GPX4 protein level, DOX stimulation; type: cell-based, Human; settings: 6 h
Protocol: The medium is DMEM medium (HyClone, SH30022.01) and RPMI medium (HyClone, SH30809.01) containing 10% fetal bovine serum (Gibco, 10091148) and 100 U/mL ampicillin+streptomycin double-antibody (Gibco, 10378016). The cell incubator conditions are 37° C., constant temperature and humidity, and constant carbon dioxide concentration of 5%. 10 μM of DOX, 10 μM DOX+10 μM dimethyl fumarate, 10 μM DOX+10 μM monomethyl fumarate, and 10 μM DOX+1 μM Ferrostatin-1 are respectively added to monolayer adherent hepatocytes HepG2 and LO2 cells. After being incubated for 6 h, the cells are gently rinsed with PBS buffer pre-cooled at 4° C. for 3 times, and then a total protein of the cells is extracted with RIPA lysate (Beyotime, P0013B). Specific operations are performed according to the instructions. After the concentration of the extracted protein is determined by BCA protein concentration determination kit (Beyotime, [MUT]), it is stored at -20° C. for later use. Each histone sample and 2×Loading Buffer are prepared at a volume ratio of 1:1, and placed in a metal bath at 100° C. to boil and denature for 10 min, then placed on ice to cool for 5 min, and a sample is waited to be loaded. Specific operations are performed according to the instructions. The test is repeated for three times.

[3] = tested on: HepG2 cells; experiment: GSH and GSSG level determination test; type: cell-based, Human; settings: 10 μM and 30 μM, incubated 20 h; concentration-dependent
Protocol: Human hepatocytes HepG2 and LO2 cells are obtained from the cell bank of Xiangya Hospital. The medium is DMEM medium (HyClone, SH30022.01) and RPMI medium (HyClone, SH30809.01) containing 10% fetal bovine serum (Gibco, 10091148) and 100 U/mL ampicillin+streptomycin double-antibody (Gibco, 10378016). The cell incubator conditions are 37° C., constant temperature and humidity, and constant carbon dioxide concentration of 5%. Monolayer adherent HepG2 cells are digested with a trypsin into single-cell suspension, and the cells are plated on a 96-well plate at 4000 cells/well. After the cells are adhered for 4-6 h, DMSO, 10 μM of dimethyl fumarate, 30 μM of dimethyl fumarate, 10 μM of monomethyl fumarate and 30 μM of monomethyl fumarate are respectively added to the cell culture plate, and incubated for 20 h, GSH/GSSG-Glo™ Assay Kit (Promega, V6611) is used to detect the total GSH and GSSH of the cells. Specific operations are performed according to the instructions, and the experiment is repeated for three times.

[4] = tested on: GPX4 protein level of HepG2 and LO2 cells; experiment: Western Blot test 1: GPX4 protein level, ethanol stimulation; type: cell-based, Human; settings: 6 h
Protocol: Human hepatocytes HepG2 and LO2 cells are obtained from the cell bank of Xiangya Hospital. The medium is DMEM medium (HyClone, SH30022.01) and RPMI medium (HyClone, SH30809.01) containing 10% fetal bovine serum (Gibco, 10091148) and 100 U/mL ampicillin+streptomycin double-antibody (Gibco, 10378016). The cell incubator conditions are 37° C., constant temperature and humidity, and constant carbon dioxide concentration of 5%. […] After being incubated for 6 h, the cells are gently rinsed with PBS buffer pre-cooled at 4° C. for 3 times, and then extracted for total protein of the cells with RI PA lysate (Beyotime, P0013B). Specific operations are performed according to the instructions. After the concentration of the extracted protein is determined by BCA protein concentration determination kit (Beyotime, [MUT]), it is stored at -20° C. for later use. Each group of protein sample and 2×Loading Buffer is prepared at a volume ratio of 1:1, and placed in a metal bath at 100° C. to boil and denature for 10 min, then placed on ice to cool for 5 min, and a sample is waited to be loaded. Specific operations are performed according to the instructions. The test is repeated for three times.

[5] = tested on: mouse liver of alcoholic fatty liver disease model; experiment: Inhibition test of ferroptosis in mouse liver of alcoholic fatty liver disease model; type: in vivo, C57BL/6 male mice; settings: 100 mg/Kg or 200 mg/Kg, intragastric, once a day, 10 consecutive days; versus model group
Protocol: 24 8-week-old SPF-grade C57BL/6 male mice are randomly divided into 4 groups, namely a blank group, a model group, a model+low-dose dimethyl fumarate (100 mg/Kg) group and a model+high-dose dimethyl fumarate (200 mg/Kg) group. The mice are let free to drink Lieber-DeCarli control diet for 5 days to gradually adapt to liquid diet and tube feeding. Subsequently, the model group is allowed to drink freely with 5% (volume/volume) standard Lieber-DeCarli alcohol liquid diet for 10 days, while the control group uses isocaloric control diet. From the 11-th day, the model+administration group is respectively administrated with dimethyl fumarate (100 mg/Kg) and dimethyl fumarate (200 mg/Kg) by intragastric administration once a day for 10 consecutive days. After that, the mice are anesthetized with 5% chloral hydrate in abdominal cavity, and liver tissues are collected, partly fixed in 10% formalin, and partly stored in liquid nitrogen. Then the following tests are separately performed (the dimethyl fumarate in the drawings of the description is represented by DMF):
(§1) A specific method is as follows: a mouse liver tissue sample fixed in 10% formalin is dehydrated, paraffin-immersed and embedded, and the paraffin-embedded tissue is sectioned. […]
(§2) A specific method is as follows: the paraffin-embedded tissue sections are baked in a constant temperature oven at 65° C. for 60 min to dissolve the paraffin, and then sequentially put in xylene to dewax and be transparent, and hydrated in ethanol solution with the concentrations from high to low. After the tissue sections are rinsed with PBS solution, a reagent A in a ready-to-use immunohistochemical hypersensitive UltraSensitive™ SP kit (Maixin Biotech Company, KIT-9707) is respectively added dropwise to remove an endogenous peroxidase from the tissues, and a reagent B is blocked by goat serum. […]

[6] = tested on: mouse liver of hepatic fibrosis model; experiment: Inhibition test of ferroptosis in mouse liver of hepatic fibrosis model; type: in vivo, SD mice; settings: 15 mg/Kg or 25 mg/Kg, intragastric, once a day, 8 weeks; versus model group
Protocol: 36 7-week-old SPF-grade SD mice of 200-250 g are randomly divided into 4 groups, namely a control group, a model group, a model+low-dose dimethyl fumarate (15 mg/Kg) group and a model+high-dose dimethyl fumarate (25 mg/Kg) group. In the model group, subcutaneous injection of 0.3 ml/100 g of 40% CCI4 peanut oil solution is used for modeling twice a week. It is started from the second week, 10% alcohol is used as the only beverage, the mice are fed with a corn meal feed mixed with 0.5% cholesterol, and modeling is continuously performed for 8 weeks. At the same time of modeling, the model+administration group are respectively given with dimethyl fumarate (15 mg/Kg) and dimethyl fumarate (25 mg/Kg) once a day by intragastric administration for 8 consecutive weeks. After that, the mice are anesthetized with 5% chloral hydrate in abdominal cavity, and the liver tissues are collected, partly fixed in formalin, and partly stored in liquid nitrogen. Then the following tests are separately performed (the dimethyl fumarate in the drawings of the description is represented by DMF):
as §1, §2

[7] = 10 μM DOX + 10 μM test substance
[8] = 80 mM ethanol + 10 μM test substance

SMILES | cell membrane lipid peroxidation level (stimulus alone) [1] | GPX4 protein level (DOX alone) ([2]; 10 μM DOX) | GSH level of the HepG2 cells [3] | GSSH level of the HepG2 cells [3] | cell membrane lipid peroxidation level caused by DOX [1, 7] | cell membrane lipid peroxidation level caused by ethanol [1, 8] | GPX4 protein level of ethanol-stimulated cells [4, 8] | GPX4 protein level of DOX-stimulated cells [2, 7] | fatty degeneration of the hepatocytes and pericentral periphlebitis (H&E staining) [5] | liver 4-HNE protein level (immunohistochemistry) [5] | liver GPX4 protein level (immunohistochemistry, Western blot) [5] | liver 4-HNE protein level (immunohistochemistry) [6] | liver GPX4 protein level (immunohistochemistry) [6] | liver pathological changes (fatty degeneration, necrosis, periportal inflammation, fibrosis; H&E and Sirius Red staining) [6] | GPX4 protein level (ethanol alone) ([4]; 80 mM ethanol)
COc1cccc2c1C(=O)c1c(O)c3c(c(O)c1C2=O)C[C@@](O)(C(=O)CO)C[C@@H]3O[C@H]1C[C@H](N)[C@H](O)[C@H](C)O1 [DOX, doxorubicin] | significantly up-regulate | significantly down-regulate | – | – | – | – | – | – | – | – | – | – | – | – | –
COC(=O)/C=C/C(=O)OC [dimethyl fumarate, Dimethyl fumarate] | – | – | significantly up-regulate | significantly up-regulate | significantly inhibit | significantly inhibit | significantly up-regulate | significantly up-regulate | significantly reduced | significantly down-regulated | significantly up-regulated | significantly down-regulated | significantly up-regulated | significantly reduced | –
CCO [ethanol] | significantly up-regulate | – | – | – | – | – | – | – | – | – | – | – | – | – | significantly down-regulate
